Test results reported in patent US9822117B2, “Pyridoindolobenz[b,d]azepine derivatives and uses thereof” (Daya Drug Discoveries, Inc., priority 2013, dated 2017).

Columns and labels:
[1] = test system: mechano-allodynia (paw withdrawal threshold); experiment: Sciatic nerve chronic constriction injury (CCI) model of neuropathic pain; assay type: in vivo, mice
Method: DDD-028 was evaluated in chronic constriction injury (CCI) model of neuropathic pain in mice as described by Bennett et al., which is incorporated herein in its entirety. Two male CDI mice (weighing 25-30 g at the time of surgery) were used in this study. The hydrochloride salt of DDD-028 was dissolved in distilled water at 0.15 mg/mL and was administered to the mice to the final dose of 1.0 mg/kg (3.5 gmol/kg) for oral administration (via gavage) or 0.3 mg/kg (1.2 gmol/kg) for intrathecal administration (injection) at peak mechano-allodynia. Baseline PWT measurements (pre-surgery) of the left-hind paw of each animal were taken prior to sciatic nerve ligation. The mice were then anesthetized with 3% isoflurane/100% O2 inhalation, and maintained on 2% isoflurane/100% O2 for the duration of surgery. The left thigh was shaved, scrubbed with Nolvasan, and a small incision (1-1.5 cm in length) was made in the middle of the lateral aspect of the left thigh to expose the sciatic nerve. The nerve was loosely ligated around the entire circumference of the nerve at three distinct sites (spaced 1 mm apart) using silk sutures. The surgical site was closed with a single muscle suture and a skin clip. Peak mechano-allodynia generally develops 7 […]. After 7 days post-surgery, Paw Withdrawal Threshold (PWT, g) measurements were taken for each animal to determine the extent of mechanical allodynia. PWT's were measured at 15 min, 30 min, 60 min, 120 min, and 180 min following administration of the drugs or vehicle. […] DDD-028 had no effect on PWT in contralateral paws.

[2] = test system: mechanical allodynia (percent weight distribution of left hind paw); experiment: Complete Freund's Adjuvant (CFA)-induced model of inflammatory pain; assay type: in vivo; settings: rats
Method: DDD-028 was evaluated in Complete Freund's Adjuvant (CFA)-induced model of inflammatory pain in rats as described by Stein et al., which is incorporated herein in its entirety. Fifteen male CD rats were used in this study. The animals were divided into three groups (vehicle, DDD-028, and indomethacin) containing 5 animals in each group. Baseline weight distribution of each animal in the groups was measured taken prior to CFA administration. Three readings were taken for each paw in each animal. Each reading was take over 3 seconds. Animals were lifted or the paws adjusted between each reading to ensure that animals were positioned correctly on the force pads. The percent weight bearing was calculated on the left leg for each reading. The mean of the three readings were then calculated for each animal. Following baseline measurements, the rats were anesthetized using 1-3% isofluorane, and were given subplantar injection of 0.1 mL of CFA into the left hind paw. Percent weight distributions of the left hind paws of each animal in the three groups were measured at 24 hours post-administration to determine the extent of mechanical allodynia. Animals were then weighed, allocated to the treatment group, and administered the test compound, DDD-028, the reference compound, indomethacin, or the vehicle. Weight distributions were measured at 15 min, 30 min, 60 min, and 120 min following administration of the drugs or vehicle.

Sigma σ2 receptor = Sigma σ2 receptor (Homo sapiens, UniProt Q5BJF2); experiment: Receptor binding, σ2
[3] = test system: mechanical allodynia (paw withdrawal threshold); experiment: Spinal nerve ligation (SNL) model of neuropathic pain; assay type: in vivo, rats
Method: DDD-028 was evaluated in spinal nerve ligation (SNL) model of neuropathic pain in rats as described by Kim et al., which is incorporated herein in its entirety. DDD-028 was prepared as a suspension (1.0 mg/mL) in 5% PEG/5% Tween-80/90% saline; and pregabalin (reference compound, positive control) was prepared as a solution in normal saline (7.9 mg/mL). Both compounds were administered to the animals via oral gavage to a final dose of 5.0 mg/kg (17.4 gmol/kg) for DDD-028; and 39.0 mg/kg (250.2 gmol/kg) for pregabalin. Control animals received the vehicle (5% PEG/5% Tween-80/90% saline). Mechanical allodynia was measured by the up and down method using calibrated von Frey filaments (Linton Instruments). Eighteen male CD rats were used in this study. The animals were divided into three groups (vehicle, DDD-028, and pregabalin) containing 6 animals in each group. Baseline PWT measurements (pre-surgery) of the left-hind paw of each animal in the group were taken prior to spinal nerve ligation. Thereafter, the rats were anesthetized using 1-3% isofluorane, and the L5 spinal nerve was isolated and ligated tightly using silk thread. Peak mechano-allodynia generally develops by day 7 following surgery. After 7 days post-surgery, PWT measurements were taken for each animal to determine the extent of mechanical allodynia. Animals were then weighed, allocated to the treatment group, and administered the test compound, DDD-028, the reference compound, pregabalin, or the vehicle. PWT's were measured at 15 min, 30 min, 60 min, 120 min, and 180 min following administration of the drugs or vehicle.

Sequence of Sigma σ2 receptor (Q5BJF2 whole entry): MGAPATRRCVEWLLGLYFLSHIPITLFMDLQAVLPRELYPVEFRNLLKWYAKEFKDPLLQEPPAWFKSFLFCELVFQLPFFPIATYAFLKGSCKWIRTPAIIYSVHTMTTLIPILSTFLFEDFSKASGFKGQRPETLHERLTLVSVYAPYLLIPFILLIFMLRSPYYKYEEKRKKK

SMILES: CC(C)C[C@H](CN)CC(=O)O [pregabalin, reference compound]
- adverse effects ([1]; as printed in Example 5 (CCI), 1-3 hours post-administration): mild sedation

SMILES: COc1ccc2c(c1)c(CC(=O)O)c(C)n2C(=O)c1ccc(Cl)cc1 [indomethacin, reference compound]
- adverse effects ([2]; 2 hours post-administration): mild sedation

SMILES: CN1CCc2c(c3cccc4c3n2CCc2ccccc2-4)C1 [Compound 13]
- Ki (Sigma σ2 receptor): 312 nM
- effect on PWT in contralateral paws ([1]; mice, CCI, 1.0 mg/kg oral or 0.3 mg/kg intrathecal): no effect
- time of maximal effect on mechano-allodynia ([1]; mice, CCI, hydrochloride salt, 1.0 mg/kg oral or 0.3 mg/kg intrathecal): ≤ 30 min
- adverse effects ([3]; rat, in vivo, po, 5 mg/kg): No adverse effects were evident
- time of maximal anti-nociceptive effect ([3]; rats, SNL, 5.0 mg/kg oral): about 60 minutes
- potency relative to pregabalin ([3]; rats, SNL, DDD-028 5.0 mg/kg vs pregabalin […], oral): about 5 fold
- adverse effects ([2]; oral): No adverse effects were evident
- potency relative to indomethacin ([2]; oral): about 5 fold
- time of maximal anti-nociceptive effect ([2]; oral): about 60 minutes
